Entries after “also recorded” stand apart in the source; their conditions may differ. Blank lines part the entries; values can stand above or below the compound they belong to.
Key:
[1] = system: prostate cancer cell line PC-3; experiment: MTT assay, human prostate cancer cells; type: cell-based; conditions: concentrations in the range of 10^−7-10^−5 M or higher, FIGS. 2, 16
Text: (§1) The anti-cancer activity of some of the compounds described herein have been tested in one type of such in vitro assay, as described in the examples herein, using a microculture assay with 3-(4,5-dimethylthiazol-2-yl)-2,5-diphenyltetrazolium bromide (“MTT”). This assay has an advantage over in vivo assay in that results are obtained within a week as opposed to several months. The assay can be carried out in 96-well microtiter plates. The MTT assay is based on the production of a dark blue formazan product by dehydrogenase in the mitochondria of live tumor cells after exposure to drug for 6 days [M. C. Alley, D. A. Scudiero, A. Monks, M. L. Hursey, M. J. Czerwinski, D. L. Fine, B. J. Abbout, J. G. Mayo, R. H. Shoemaker and M. R. Boyd, Cancer Res., 48, 589, 1988]. Thus, only live cells are stained and can be measured at 595 nm. Anti-cancer activity can be reported as percent of the tumor cell growth in the presence of compound at a defined dose compared to control/vehicle treated tumor cells. The results of some such screening assays are given in Examples 162a and 162b, and in FIGS. 2, 3, and 15-18.
(§2) The following human cancer cell lines were used to detect anti-cancer activity in the compounds of the invention.
The prostate cancer cell line PC-3 was used to detect […]
(§3) Cell lines were purchased from American Type Culture Collection (ATCC).
(§4) The cancer cell cultures were grown as recommended by the ATTC manuals. A549 cells and BX-PC-3 were grown in DME Dulbecco's modified Eagle's medium containing 4500 mg/L glucose; 4 mM L-glutamine; 10 U/ml Pen-G; 10 mcg/ml […] and 10% fetal calf serum (FCS). PC-3 and MDA-MB468 cells were grown in RPMI medium 1640 containing 2 mM L-glutamine; 10 U/ml Pen-G; 10 mcg/ml Streptomycin and 10% FCS. Cells were kept at 6% CO2 and 37° C. Cells were seeded on day zero in 96-well format tissue culture plates at suitable densities the day before starting treatment, in the media indicated above.
(§5) On day one, the compounds of the invention were added to the culture media of growing cells, containing 10% FCS. The cell media contained the compounds of the invention at one of six concentrations: […], 5×10^−8, 1×10^−7, 5×10^−7, 1×10^−6, and 1×10^−5M. 0.1% DMSO was used as vehicle control, and never exceeded 0.1% final concentration. On day four the media was removed and replaced with fresh media containing the compounds of the invention and FCS.
(§6) The assay is based on the cleavage of the yellow tetrazolium salt MTT to purple formazan crystals by dehydrogenase activity in active mitochondria. This conversion only occurs in living cells with intact/functional mitochondria.
(§7) On day five 10 μl of 5 mg/ml MTT dye are added to each well containing a cell culture. Cells are incubated for additional 4 hours at 6% CO2 and 37° C. Reaction is then stopped by adding 100 μl/well of a solubilization solution consisting of 10% Sodium Dodecyl Sulfate (SDS) and 10 mM HCl On day 6 the formazan crystals formed are solubilized and the resulting colored solution is quantified using a scanning multiwell spectrophotometer at a wavelength of 595 nm.

[2] = system: pancreatic cancer cell line BX-PC-3; experiment: MTT assay, human pancreatic cancer cells; type: cell-based; conditions: concentrations in the range of 10^−7-10^−5 M or higher, FIGS. 3, 18
Text: as §1, §2
The pancreatic cancer cell line BX-PC-3 was used to detect anti-pancreatic cancer activity.
as §3, §4, §5, §6, §7

[3] = system: breast cancer cell line MDA-MB468; experiment: MTT assay, human breast cancer cells; type: cell-based; conditions: concentrations in the range of 10^−7-10^−5 M or higher, FIGS. 2, 17
Text: as §1, §2
The breast cancer cell line MDA-MB468 served to detect anti-breast cancer activity.
as §3, §4, §5, §6, §7

[4] = system: non-small-cell lung cancer cell line A549; experiment: MTT assay, human non-small-cell lung cancer cells; type: cell-based; conditions: concentrations in the range of 10^−7-10^−5 M or higher, FIGS. 3, 15
Text: as §1, §2
The non-small-cell lung cancer cell line A549 was used to detect anti-lung cancer activity
as §3, §4, §5, §6, §7

tumor cells (PC3) = experiment: Solid prostate cancer tumors in athymic nude mice, intraperitoneal treatment; type: in vivo; conditions: PC3 s.c. in athymic nude mice; i.p. every other day; compound 43 20mg/kg, compound 81 20mg/kg and 60mg/kg; FIGS. 20, 21
Procedure: (§8) Four to six week-old male athymic nude mice (Harlan) were housed under sterile conditions in a fixed 12-12-hr artificial light-dark cycle, and maintained on a standard rodent diet provided ad libitum. Animals were allowed two days to acclimate in this experimental environment prior to the initiation of the study.
(§9) Groups of animals were injected subcutaneously with tumor cells (H460 or PC3). Prior to the injection, the sterile tumor cells were at a logarithmic growth phase and were washed twice with PBS, counted and resuspended in sterile saline at 5-50 million cells per ml. As soon as solid tumors were discernible, the animals were sorted into treatment groups with equal average tumor volume. Animals were treated every other day intraperitoneally with a final volume of 5 ml/kg. Tumor volume was measured once a week for the duration of the study.
Experiment I: Treatment of solid prostate cancer tumors
Study 1—Treatment groups(n=6/group):

tumor cells (H460) = experiment: Solid non-small-cell lung cancer tumors in athymic nude mice, intraperitoneal treatment; type: in vivo; conditions: H460 s.c. in athymic nude mice, i.p. every other day, compound 81 20mg/kg, FIG. 22
Procedure: as §8, §9
Experiment II: Treatment of solid non-small-cell lung cancer tumors

SMILES: O=C1N=C(N2CCOCC2)SC1Cc1cccc(-c2ccc(O)c(C34CC5CC(CC(C5)C3)C4)c2)c1 (centres unmarked) [Compound 135, 5-(3′-Adamantan-1-yl-4′-hydroxy-biphenyl-3-ylmethyl)-2-morpholin-4-yl-thiazol-4-one]
- anticancer cell activity / killing of prostate cancer cells [1]: kill significant percentages of the cells
- anticancer cell activity / killing of pancreatic cancer cells [2]: kill significant percentages of the cells
- anticancer cell activity / killing of breast cancer cells [3]: kill significant percentages of the cells
- anticancer cell activity / killing of non-small-cell lung cancer cells [4]: kill significant percentages of the cells

SMILES: CCC(C)(C)c1cc(-c2cccc(CC3SC(N4CCOCC4)=NC3=O)n2)ccc1O (centres unmarked) [Compound 155, 5-{6-[3-(1,1-Dimethyl-propyl)-4-hydroxy-phenyl]-pyridin-2ylmethyl}--2-morpholin-4-yl-thiazol-4-one]
- anticancer cell activity / killing of prostate cancer cells [1]: kill significant percentages of the cells
- anticancer cell activity / killing of pancreatic cancer cells [2]: kill significant percentages of the cells
- anticancer cell activity / killing of breast cancer cells [3]: kill significant percentages of the cells
- anticancer cell activity / killing of non-small-cell lung cancer cells [4]: kill significant percentages of the cells

SMILES: O=C1N=C(N2CCCC2)SC1Cc1cccc(-c2cc(F)c(O)c(C34CC5CC(CC(C5)C3)C4)c2)c1 (centres unmarked) [Compound 81]
- growth of solid human prostate cancer tumors (tumor cells (PC3)): significantly retarded the growth; also recorded: significantly slowed the growth
- melting point: 152 to 154 °C
- anticancer cell activity / killing of prostate cancer cells [1]: kill significant percentages of the cells
- anticancer cell activity / killing of pancreatic cancer cells [2]: kill significant percentages of the cells
- growth of non-small cell lung cancer tumors (tumor cells (H460)): significantly retarded the growth; also recorded: significantly slowed the growth
- anticancer cell activity / killing of breast cancer cells [3]: kill significant percentages of the cells
- anticancer cell activity / killing of non-small-cell lung cancer cells [4]: kill significant percentages of the cells

SMILES: CCC(C)(C)c1cc(-c2ccc(F)c(/C=C3\SC(N4CCOCC4)=NC3=O)c2)ccc1O [Compound 152, 5-[3′-(1,1-Dimethyl-propyl)-4-fluoro-4′-hydroxy-biphenyl-3-ylmethylene]-2-morpholin-4-yl-thiazol-4one]
- anticancer cell activity / killing of prostate cancer cells [1]: kill significant percentages of the cells
- anticancer cell activity / killing of pancreatic cancer cells [2]: kill significant percentages of the cells
- anticancer cell activity / killing of breast cancer cells [3]: kill significant percentages of the cells
- anticancer cell activity / killing of non-small-cell lung cancer cells [4]: kill significant percentages of the cells

SMILES: O=C1N=C(N2CCOCC2)S/C1=C\c1cccc(-c2cc(F)c(O)c(C34CC5CC(CC(C5)C3)C4)c2)c1 [Compound 1, 5-[3-(3-Adamantan-1-yl-4-hydroxy-5-fluoro-phenyl)benzylidene]-2-morpholin-4-yl-thiazol-4-one]
- melting point: 293 to 295 °C
- anticancer cell activity / killing of prostate cancer cells [1]: kill significant percentages of the cells; also recorded: strong anticancer cell activity
- anticancer cell activity / killing of pancreatic cancer cells [2]: kill significant percentages of the cells; also recorded: strong anticancer all activity
- anticancer cell activity / killing of breast cancer cells [3]: kill significant percentages of the cells; also recorded: strong anticancer cell activity
- anticancer cell activity / killing of non-small-cell lung cancer cells [4]: kill significant percentages of the cells; also recorded: strong anticancer all activity

SMILES: O=C1N=C(N2CCC[C@@H]2C(=O)O)S/C1=C\c1cccc(-c2cc(F)c(O)c(C34CC5CC(CC(C5)C3)C4)c2)c1 [Compound 76, 5-[3-(3-Adamantan-1-yl-4-hydroxy-5-fluoro-phenyl)benzylidene]-2-(2-(R)-carboxy-1-yl)-thiazol-4-one]
- melting point: 164 to 168 °C

More lines, main results first:

- melting point: 74 to 77 °C
SMILES: CCC(C)(C)c1cc(-c2cccc(CC3SC(N4CCOCC4)=NC3=O)c2)ccc1O (centres unmarked) [Compound 151, 5-[3′-(1,1-Dimethyl-propyl)-4′-hydroxy-biphenyl-3-ylmethyl]-2-morpholin-4-yl-thiazol-4-one]
- anticancer cell activity / killing of prostate cancer cells [1]: kill significant percentages of the cells
- anticancer cell activity / killing of pancreatic cancer cells [2]: kill significant percentages of the cells
- anticancer cell activity / killing of breast cancer cells [3]: kill significant percentages of the cells
- anticancer cell activity / killing of non-small-cell lung cancer cells [4]: kill significant percentages of the cells

- melting point: 227 to 229 °C
SMILES: O=C1N=C(N2CCOCC2)SC1Cc1cccc(-c2cc(F)c(O)c(C34CC5CC(CC(C5)C3)C4)c2)c1 (centres unmarked) [Compound 43, 5-[3-(3-Adamantan-1-yl-4-hydroxy-5-fluoro-phenyl)benzyl]-2-morpholin-4-yl-thiazol-4-one]
- growth of solid human prostate cancer tumors (tumor cells (PC3)): significantly retarded the growth; also recorded: significantly slowed the growth
- anticancer cell activity / killing of prostate cancer cells [1]: kill significant percentages of the cells; also recorded: strong anticancer cell activity
- anticancer cell activity / killing of pancreatic cancer cells [2]: kill significant percentages of the cells; also recorded: strong anticancer all activity
- anticancer cell activity / killing of breast cancer cells [3]: kill significant percentages of the cells; also recorded: strong anticancer cell activity
- anticancer cell activity / killing of non-small-cell lung cancer cells [4]: kill significant percentages of the cells; also recorded: strong anticancer all activity

- melting point: 310 to 312 °C
SMILES: COc1cc(-c2ccc(O)c(C34CC5CC(CC(C5)C3)C4)c2)cc(/C=C2\SC(N3CCOCC3)=NC2=O)c1O [Compound 84, 5-[3-(3-Adamantan-1-yl-4-hydroxy-phenyl)-5-methoxy-6-hydroxy-benzylidene]-2-morpholin-4-yl-thiazol-4-one]
- anticancer cell activity / killing of prostate cancer cells [1]: kill significant percentages of the cells
- anticancer cell activity / killing of pancreatic cancer cells [2]: kill significant percentages of the cells
- anticancer cell activity / killing of breast cancer cells [3]: kill significant percentages of the cells
- anticancer cell activity / killing of non-small-cell lung cancer cells [4]: kill significant percentages of the cells

From patent US20040097566A1, “2-Substituted thiazolidinone and oxazolidinone derivatives for the inhibition of phosphatases and the treatment of cancer” (priority 2001, published 2004)
